Earlier results in patent US12161674B2, “CRISPR-CAS9 modified CD34+ human hematopoietic stem and progenitor cells and uses thereof” (Vertex Pharmaceuticals Incorporated, priority 2018, dated 2024).

System: CD34^+ cells
Settings: plerixafor alone

subjects with non-severe pain crisis (despite RBC transfusions in the preceding 2 months): 3 of 7
Structure (SMILES): c1cc(CN2CCCNCCNCCCNCC2)ccc1CN1CCCNCCNCCCNCC1 [plerixafor]
median collection of CD34^+ cells after a single apheresis (subjects with severe SCD, range 5.1 to 20.0): 10.4×10^6 CD34^+ cells/kg
